In brackets after ≈: the same amount, converted by molar mass. Where two headings read alike, the source gives them in different places.
What was measured:
[1] = test system: Staphylococcus spp.; test: Rifampicin susceptibility testing (E-test strip) of Staphylococcus colonies isolated from rat stool; format: cell-based; conditions: for MIC: read-out: mean inhibitory concentration (MIC) for rifampicin
Description: Rifampicin susceptibility was tested in Staphylococcus spp. isolated from stool of rats before and after rifaximin treatment for 10 days. From PEA plates, 30 random recognizable Staphylococcus colonies were picked for baseline cultures, suspended in PBS and spread on PEA agar plates to create a lawn. A commercially available rifampicin test strip was added to each lawn to detect rifampicin resistance. The range of rifampicin mean inhibitory concentrations (MICs) detected by E-test was 0.002 to 32 μg/mL. Based on manufacturer's instruction, growth at <2 ug/mL was considered sensitive, growth at 2-4 ug/mL was considered intermediate resistance to rifampicin, and growth at >4 ug/mL was considered resistant to rifampicin. After 10 days of rifaximin, stool was again plated on PEA and another 30 staphylococcal colonies were picked for producing a lawn to analyze rifampicin resistance using the applied test strip. Since no significant Staphylococcus spp. colonies remained on day 30 post rifaximin treatment, sensitivity testing could not be assessed.

[2] = test system: Staphylococcus spp.; test: Stool Staphylococcus spp. colony counts (PEA agar) during and after daily rifaximin gavage; format: in vivo, Sprague-Dawley rats
From the text: Adult male Sprague-Dawley rats were acquired and quarantined for 5 days. During this time, chow was standardized to ensure all animals had identical feeding type.
(§1) After this equilibration period, fresh stool was collected from each rat (n=30) by anal stimulation. The stool collected on Day 0 was homogenized and plated by serial dilution with 1XPBS (Phosphate Buffered Saline) on Blood Agar with Phenylethyl Alcohol (PEA) to select for the presence of the Staphylococcal spp. Similarly, homogenized stool was serially plated on MacConkey agar to select for and determine coliform counts in the stool. All plates were incubated for 24 hours at 37° C. Based on serial stool dilution and colony counts, the baseline stool levels of Staphylococcus spp. and coliforms were determined
(§2) Rats were divided into 3 treatment groups and gavaged daily for 10 days with or without high dose rifaximin Group 1 was gavaged with PBS alone, Group 2 was gavaged daily with rifaximin 200 mg in PBS. Groups 1 and 2 were euthanized after the 10 days of daily gavage. Group 3 was gavaged daily with rifaximin 200 mg in PBS and housed for 30 days following completion of rifaximin before euthanasia. During the rifaximin treatment, fresh stool was collected daily as described above. Again, stool was homogenized and plated by serial dilution on MacConkey and PEA agar to determine coliform and Staphylococcus spp. counts during the treatment. After the completion of 10 days of treatment, 10 rats were euthanized for bacterial quantitation by culture and qPCR throughout the intestinal tract. The remaining 10 rats were followed for 30 days after completing rifaximin. These rats had interval stool culture for quantitation of Staphylococcus spp. and coliforms and the determination of recovery time of stool flora if any.

[3] = test system: coliforms; test: Stool coliform culture (MacConkey agar) with rifaximin gavage; format: in vivo, Sprague-Dawley rats
Description: as §1
as §2, with “Again, stool was homogenized and plated by serial dilution on MacConkey and PEA agar to determine coliform and Staphylococcus spp. counts during the treatment.” left out, “The remaining 10 rats were followed for 30 days after completing rifaximin.” left out

[4] = test system: total bacteria; test: qPCR of total luminal bacteria by bowel segment; format: in vivo, Sprague-Dawley rats
From the text: (§3) For the examination of luminal bacterial counts, rats were euthanized and dissected after 10 days of PBS (n=10) (control), after 10 days of rifaximin (n=10) and 30 days post rifaximin (n=10). During the dissection, pre-specified segments of duodenum, jejunum, ileum, cecum and left colon were ligated and resected as previously described (Pimentel et al. 2008. Dig Dis Sci 53:982-989). Luminal contents were extracted from each segment. For culture of coliforms, serial dilutions were again prepared and plated on MacConkey agar then incubated and counted. In addition, luminal contents were also used to determine total bacterial counts by qPCR.
To quantify bacteria in the luminal contents, qPCR was used. DNA was isolated from luminal contents of the duodenal, jejunal, ileal, cecal and left colon samples using commercially available kits. Bacterial universal primers (Mohammadi et al. 2003. J Clin Microbiol 41(10):4796-4798) were used to amplify the 16S rRNA gene from DNA using a commercially available RT-PCR detection system and optical grade 96-well plates. Samples were run in duplicate. To generate standard curves, the Ct values were analyzed from ten-fold dilutions of lysed Escherichia coli cultures. E. coli from a number of laboratory strains were pooled and grown in LB media.
The same adult male Sprague-Dawley rats from the coliform culture study described above were used here. In this experiment, ten rats were euthanized at day 10 of rifaximin treatment, and ten rats were euthanized at day 30 after completion of rifaximin treatment. As a control to these two groups, a group of 10 rats were gavaged with only PBS (placebo); these rats were also euthanized after 10 days. After euthanasia, rats were dissected to remove a segment of ileum, jejunum and duodenum as well as cecum and left colon. Luminal contents from these 5 areas were removed, and DNA was extracted. Quantitative PCR (qPCR) was used to determine the total number of bacteria in each segment of bowel. These counts were compared between control, rifaximin treated and 30 day post rifaximin rats (Example 1).

[5] = test system: coliforms; test: Luminal coliform culture by bowel segment; format: in vivo, Sprague-Dawley rats; conditions: after treatment with rifaximin vs non-treated control rats; bowel segments (FIG. 3)
From the text: as §3

[6] = test system: coliform bacteria; test: Effect of dietary fat with rifaximin on coliform bacteria; format: in vivo, Sprague-Dawley rats; conditions: healthy rats
Description: Adult male Sprague-Dawley Rats were randomly assigned to three groups. Group 1 was gavaged daily for 7 days with rifaximin in PBS. Group 2 received rifaximin 200 mg in lipid daily by gavage. Group 3 were 10 rats only given PBS (control). Rats had fresh stool collected by anal stimulation at baseline and daily during gavage. The stool was homogenized and plated by serial dilution on MacConkey Agar (BD Diagnostics, Franklin Lakes, N.J.). This is a selective agar for coliform bacteria. Based on serial dilution, the total number of coliform bacteria was determined.

[7] = test system: Staphylococcus; test: IBS model (post C. jejuni): presence of Staphylococcus after rifaximin; format: in vivo, Sprague-Dawley rats; conditions: rats with IBS phenotype; 51 rats rifaximin vs 50 placebo
Description: Following acute infection with C. jejuni, rats develop a phenotype of IBS and small intestinal bacterial overgrowth. For the examination of antibiotic resistance following rifaximin treatment in subject with IBS, 100 Sprague-Dawley rats were gavaged with 10^8 cfu of C. jejuni 81-176 within 30 minutes of gavage with a bicarbonate solution using a ball-tipped gavage needle. After gavage rats were followed with daily stool culture for C. jejuni for seven consecutive days to verify infection. In addition, stool was characterized on the basis of consistency.
Thirty days from gavage, stool samples were collected on two consecutive days to confirm absence of C. jejuni in stool. Once rats were confirmed to have cleared C. jejuni, they were housed in common conditions for a period of three months. […]
The rats were then randomized and received either a 200 mg dose of rifaximin in PBS or PBS alone daily for 10 days. […] Upon completion of treatment with rifaximin, the rats were monitored for an additional seven days. […]
The effect of rifaximin on Staphylococcal species was tested and antibiotic resistance was examined. The contents of the ligated bowel segments were examined to determine the quantity and type of bacteria by segment and evaluate expression of mucosal cytokines. […]

[8] = test system: Staphylococcal spp; test: IBS model: Staphylococcus sensitivity testing to rifampin (E-test strips); format: cell-based
Description: The effect of rifaximin on Staphylococcal species was tested and antibiotic resistance was examined. The contents of the ligated bowel segments were examined to determine the quantity and type of bacteria by segment and evaluate expression of mucosal cytokines.
Among rats with detectable staphylococcus, rifampin resistance was tested using E-test strips and Data was analyzed by Fisher's Exact Test. […] (Table 2)

[9] = oral administration; Descombe et al. 1994; cited from earlier work
[10] = test system: Staphylococcus, Streptococcus, Enterococcus, and Enterobacteriaceae; conditions: species of Staphylococcus; cited from earlier work
[11] = after 10 days of gavage with rifaximin, 30 random colonies
[12] = all rats receiving rifaximin (n=20) vs control rats
[13] = Staphylococcus from IBS-phenotype rats treated with rifaximin
[14] = sensitivity to rifampin, IBS-phenotype rats treated with rifaximin

CO[C@H]1/C=C/O[C@@]2(C)Oc3c(C)c(O)c4c(O)c(c(/C=N/N5CCN(C)CC5)c(O)c4c3C2=O)NC(=O)/C(C)=C\C=C\[C@H](C)[C@H](O)[C@@H](C)[C@@H](O)[C@@H](C)[C@H](OC(C)=O)[C@@H]1C [rifampicin]
MIC ([1]; 240 h, Staphylococcus colonies from rat stool after 10 days of high dose rifaximin, P=0.63 vs baseline): 0.91 ± 0.52 µg/mL (≈ 1.11 µM) | MIC ([1]; Staphylococcus colonies from rat stool at baseline (before rifaximin)): 1.1 ± 1.6 µg/mL (≈ 1.34 µM)

(2S,16Z,18E,20S,21S,22R,23R,24R,25S,26S,27S,28E)-5,6,21,23,25 Pentahydroxy-27-methoxy-2,4,11,16,20,22,24,26-octamethyl-2,7-(epoxypentadeca-(1,11,13)trienimino)benzofuro(4,5-e)pyrido(1,2,-a)benzimidazole-1,15(2H)-dione,25-acetate) [rifaximin]
Staphylococcus spp. colonies in stool 30 days after rifaximin ([2]; 30 days after completion of 10 days rifaximin): insufficient Staphylococcus spp. colonies in any of the rats to analyze | range of total count of Staphylococcus spp in stool ([2]; after 10 days of rifaximin 200 mg daily gavage, 20 rats): 0-8.6×10^5 cfu/ml | median total count of Staphylococcus spp in stool ([2]; after 10 days of rifaximin 200 mg daily gavage, total of S. aureus and coag-Staphylococcus, 20 rats, p<0.01 vs baseline): 1.20×10^5 cfu/ml | level of S. aureus in stool of rats with detectable S. aureus ([2]; day 10 of rifaximin treatment): 2×10^3 cfu/ml | number of rats with detectable S. aureus in stool ([2]; day 10 of rifaximin treatment, of 20 rats (18/20 at baseline)): 5 | time course of Staphylococcus spp in stool ([2]; during rifaximin 200 mg daily gavage): diminish significantly in stool by day 3 | Staphylococcal colonies Intermediate (2-4 ug/mL) resistance to rifampin, % [1, 11]: 3.3% | Staphylococcal colonies Sensitive (<2 ug/mL) to rifampin, % [1, 11]: 96.6% | time to recovery of stool coliform count ([3]; after the 10-day rifaximin treatment): three | median stool coliform count ([3]; day 10 of high dose rifaximin, P<0.01 vs baseline): 2.2×10^3 cfu/mL | durability of the reduction in duodenal bacteria counts by qPCR ([4]; after 10 days of rifaximin and 30 days post, P=0.08, not quite significant): sustained 30 days after the completion of rifaximin | duodenal total bacterial counts by qPCR [4, 12]: significant reduction in duodenal bacterial counts | jejunal total bacterial counts by qPCR [4, 12]: appeared to diminish as well, this did not reach statistical significance | total bacterial counts by qPCR in the ileum, cecum or left colon [4, 12]: no differences were seen | change in luminal coliform counts by culture [5]: no significant change in coliform counts by culture | normal flora (coliform) counts in the small bowel ([6]; rifaximin by itself or with oil as dissolving media): did not appear to change normal flora counts | median coliform count in the duodenum ([6]; rifaximin in PBS or rifaximin 200 mg in lipid, daily gavage 7 days): 0 | rate of colonization of rats with Staphylococcus [7]: reduction in the rate of colonization | Median MIC of rifampin [8, 13]: 0.214 µg/mL | Range of rifampin MIC [8, 13]: 0.012 to 16 µg/mL | rifampin resistance of Staphylococcus after treatment ([8]; rats with an IBS phenotype, detectable staphylococcus, Fisher's Exact Test): no evidence of rifampin resistance | % of rats with resistance ([8]; resistance to rifampin, 51 IBS-phenotype rats treated with rifaximin): 1.96% | # of intermed Staphylococcal spp [8, 14]: 0 | # of resistant Staphylococcal spp [8, 14]: 1 | # of sensitive Staphylococcal spp [8, 14]: 10 | systemic absorption [9]: negligible systemic absorption | antibacterial activity in vitro [10]: active

From patent US20150164868A1, “METHODS OF ADMINISTERING RIFAXIMIN WITHOUT PRODUCING ANTIBIOTIC RESISTANCE” (priority 2012, published 2015)
